Tested on: human skin
Assay: Parasthesia irritation screening: one-gram drop placed on human skin, Parasthesia Irritation Rating (PIR)
Assay type: in vivo
Set-up: key: 0 = no discomfort, 4 = slight, 8 = noticeable, 12 = severe
Protocol: 1. Different ratios of active ingredient to IDPP are prepared for evaluation.
2. A one-gram drop of the ratio is placed on human skin. Only one drop is evaluated within a 24-hour period.
3. Irritation or sensitivity values are assigned according to the following scale (“Parasthesia Irritation Rating” or “PIR”): • 12=Severe • 8 =Noticeable discomfort • 4 =Slight discomfort • 0=No discomfort
4. If irritation is severe or noticeable at any time within a 24-hour period, the skin is washed and 5% lidocaine solution is applied to lessen discomfort.

[1] = ratio active agent:IDPP 0.67:1.00, within 24-hour period

| Structure (SMILES) | Parasthesia Irritation Rating (active agent 1.00 without IDPP (—), within 24-hour period) | Parasthesia Irritation Rating [1] | Parasthesia Irritation Rating (ratio active agent:IDPP 1.00:1.00, within 24-hour period) | Parasthesia Irritation Rating (ratio active agent:IDPP 1.50:1.00, within 24-hour period) | Parasthesia Irritation Rating (ratio active agent:IDPP 0.18:1.00, within 24-hour period) | Parasthesia Irritation Rating (ratio active agent:IDPP 0.21:1.00, within 24-hour period) | Parasthesia Irritation Rating (ratio active agent:IDPP 0.25:1.00, within 24-hour period) | Parasthesia Irritation Rating (ratio active agent:IDPP 0.33:1.00, within 24-hour period) | Parasthesia Irritation Rating (ratio active agent:IDPP 0.43:1.00, within 24-hour period) |
| --- | --- | --- | --- | --- | --- | --- | --- | --- | --- |
| CC(C)=CC1C(C(=O)OC(C#N)c2cccc(Oc3ccccc3)c2)C1(C)C (stereo not shown) [Cyphenothrin] | 12.00 | 0.00 | 0.00 | 4.00 | – | – | – | – | – |
| CC1(C)C(C=C(Cl)Cl)C1C(=O)OC(C#N)c1cccc(Oc2ccccc2)c1 (stereo not shown) [Cypermethrin] | – | 12.00 | – | – | 0.00 | 0.00 | 4.00 | 12.00 | 12.00 |
